Reference: patent US5929075A, “Apolipoprotein-B synthesis inhibitors” (Janssen Pharmaceutica, N.V., priority 1994, dated 1999)

Test system: apolipoprotein B
Experiment: Apolipoprotein B (apo B) inhibition test in cultured human liver cells (Hepg2-cells)
Assay type: cell-based
Conditions: concentration of the drug needed to reduce apoB secretion to 50% of the control, overnight at 37° C.
Description: Cultured human liver cells (Hepg2-cells), which synthesize and secrete low-density lipoproteins, were incubated overnight at 37° C. in a liquid medium containing radioactively labelled leucine. Thus radioactively labelled leucine was incorporated into the apolipoprotein B. The liquid medium was decanted and the apolipoprotein B was isolated by means of a double immunoprecipitation, i.e. first an apolipoprotein B-specific antibody (antibody1) was added to the liquid medium and subsequently a second antibody (antibody2) was added which binds specifically to the apoB-antibody1 -complex. The thus formed apoB-antibody1 -antibody2 complex precipitated and was isolated by centrifuge. Quantification of the amount of apolipoprotein B synthesized during the night resulted from measuring the radioactivity of the isolated complex. To measure the inhibiting activity of the test compound, that test compound was added to the liquid medium at different concentrations and the concentration of apolipoprotein B synthesized in the presence of a test compound (concentration apoB(after)) was compared to the concentration of apolipoprotein B which was synthesized in the absence of the test compound (concentration apoB(control)). For each experiment the inhibition of apolipoprotein-B formation was expressed as
% inhibition=100×(1-concentration of apoB(after)/concentration
When more experiments were carried out for the same concentration, the median value of the inhibition calculated for these experiments was calculated. IC50 -values (concentration of the drug needed to reduce apoB secretion to 50% of the control) were also computed.

IC50 | SMILES
140 nM | CC(C)Cn1ncn(-c2ccc(N3CCN(c4ccc(OC[C@@H]5CO[C@@](CSc6nncn6C)(c6ccc(Cl)cc6)O5)cc4)CC3)cc2)c1=O (relative stereo) [Compound 23]
110 nM | CCC(C)n1cnn(-c2ccc(N3CCN(c4ccc(OC[C@@H]5CO[C@@](CSc6nncn6C)(c6ccc(F)cc6)O5)cc4)CC3)cc2)c1=O (relative stereo) [Compound 9]
69 nM | CC(C)Cn1cnn(-c2ccc(N3CCN(c4ccc(OC[C@H]5CO[C@](CSc6ncnn6C)(c6ccc(Cl)cc6)O5)cc4)CC3)cc2)c1=O (relative stereo) [Compound 87]
200 nM | CC(C)Cn1cnn(-c2ccc(N3CCN(c4ccc(OC[C@@H]5CO[C@@](CSc6nncn6C)(c6ccc(F)cc6)O5)cc4)CC3)cc2)c1=O (relative stereo) [Compound 5]
49 nM | CCC(C)n1ncn(-c2ccc(N3CCN(c4ccc(OC[C@H]5CO[C@](CSc6nc(C)nn6C)(c6ccc(Cl)cc6)O5)cc4)CC3)cc2)c1=O (relative stereo) [Compound 81]
71 nM | CCC(C)n1ncn(-c2ccc(N3CCN(c4ccc(OC[C@H]5CO[C@](CSc6ncnn6CC)(c6ccc(Cl)cc6)O5)cc4)CC3)cc2)c1=O (relative stereo) [Compound 77]
230 nM | CCC(C)n1ncn(-c2ccc(N3CCN(c4ccc(OC[C@H]5CO[C@](CSc6nnc(C)n6C)(c6ccc(Cl)cc6)O5)cc4)CC3)cc2)c1=O (relative stereo) [Compound 56]
140 nM | Cn1ncnc1SC[C@]1(c2ccc(F)cc2)OC[C@H](COc2ccc(N3CCN(c4ccc(-n5ncn(C6CCCC6)c5=O)cc4)CC3)cc2)O1 (relative stereo) [Compound 74]
510 nM | CCC(C)n1ncn(-c2ccc(N3CCN(c4ccc(OC[C@H]5CO[C@](CSc6nnnn6-c6ccccc6)(c6ccc(Cl)cc6)O5)cc4)CC3)cc2)c1=O (relative stereo) [Compound 89]
230 nM | Cn1cnnc1SC[C@@]1(c2ccc(F)cc2F)OC[C@@H](COc2ccc(N3CCN(c4ccc(-n5cnn(C6CCCC6)c5=O)cc4)CC3)cc2)O1 (relative stereo) [Compound 37]
190 nM | CCC(C)n1ncn(-c2ccc(N3CCN(c4ccc(OC[C@H]5CO[C@](CSc6ncnn6C)(c6ccc(F)cc6F)O5)cc4)CC3)cc2)c1=O (relative stereo) [Compound 62]
46 nM | CCCCn1ncnc1SC[C@]1(c2ccc(Cl)cc2)OC[C@H](COc2ccc(N3CCN(c4ccc(-n5cnn(C(C)CC)c5=O)cc4)CC3)cc2)O1 (relative stereo) [Compound 79]
130 nM | CCCn1cnn(-c2ccc(N3CCN(c4ccc(OC[C@@H]5CO[C@@](CSc6nncn6C)(c6ccc(Cl)cc6)O5)cc4)CC3)cc2)c1=O (relative stereo) [Compound 8]
46 nM | CCC(C)n1ncn(-c2ccc(N3CCN(c4ccc(OC[C@H]5CO[C@](CSc6ncnn6C)(c6ccc(F)cc6)O5)cc4)CC3)cc2)c1=O (relative stereo) [Compound 63]
26 nM | CCC(C)n1ncn(-c2ccc(N3CCN(c4ccc(OC[C@H]5CO[C@](CSc6nccs6)(c6ccc(Cl)cc6)O5)cc4)CC3)cc2)c1=O (relative stereo) [Compound 108]
65 nM | CC[C@H](C)n1ncn(-c2ccc(N3CCN(c4ccc(OC[C@@H]5CO[C@@](CSc6nncn6C)(c6ccc(Cl)cc6)O5)cc4)CC3)cc2)c1=O [Compound 38]
47 nM | CCCCn1cnnc1SC[C@@]1(c2ccc(Cl)cc2)OC[C@@H](COc2ccc(N3CCN(c4ccc(-n5cnn(C(C)CC)c5=O)cc4)CC3)cc2)O1 (relative stereo) [Compound 51]
47 nM | CCC(C)n1cnn(-c2ccc(N3CCN(c4ccc(OC[C@@H]5CO[C@@](CSc6nncn6C)(c6ccc(Cl)cc6)O5)cc4)CC3)cc2)c1=O (relative stereo) [Compound 2]
91 nM | CC(C)Cn1cnn(-c2ccc(N3CCN(c4ccc(OC[C@@H]5CO[C@@](CSc6nncn6C)(c6ccc(Cl)cc6)O5)cc4)CC3)cc2)c1=O (relative stereo) [Compound 3]
92 nM | CC(C)n1cnn(-c2ccc(N3CCN(c4ccc(OC[C@@H]5CO[C@@](CSc6nncn6C)(c6ccc(Cl)cc6)O5)cc4)CC3)cc2)c1=O (relative stereo) [Compound 1]
250 nM | CCC(C)n1ncn(-c2ccc(N3CCN(c4ccc(OC[C@H]5CO[C@](CSc6nncn6C(C)C)(c6ccc(Cl)cc6)O5)cc4)CC3)cc2)c1=O (relative stereo) [Compound 52]
51 nM | CCC(CC)n1ncn(-c2ccc(N3CCN(c4ccc(OC[C@@H]5CO[C@@](CSc6nncn6C)(c6ccc(Cl)cc6)O5)cc4)CC3)cc2)c1=O (relative stereo) [Compound 44]

IC50 | SMILES
120 nM | CCC(CC)n1cnn(-c2ccc(N3CCN(c4ccc(OC[C@H]5CO[C@](CSc6ncnn6C)(c6ccc(F)cc6)O5)cc4)CC3)cc2)c1=O (relative stereo) [Compound 75]
23 nM | CC[C@@H](C)n1ncn(-c2ccc(N3CCN(c4ccc(OC[C@@H]5CO[C@@](CSc6nncn6C)(c6ccc(Cl)cc6)O5)cc4)CC3)cc2)c1=O [Compound 40]
310 nM | CCC(C)n1ncn(-c2ccc(N3CCN(c4ccc(OC[C@H]5CO[C@](CSc6nnc(O)n6C)(c6ccc(Cl)cc6)O5)cc4)CC3)cc2)c1=O (relative stereo) [Compound 58]
41 nM | CCCCCn1cnn(-c2ccc(N3CCN(c4ccc(OC[C@@H]5CO[C@@](CSc6nncn6C)(c6ccc(Cl)cc6)O5)cc4)CC3)cc2)c1=O (relative stereo) [Compound 18]
510 nM | Cn1cnnc1SC[C@@]1(c2ccc(F)cc2F)OC[C@@H](COc2ccc(N3CCN(c4ccc(-n5ncn(C6CCCC6)c5=O)cc4)CC3)cc2)O1 (relative stereo) [Compound 13]
290 nM | CCC(CC)n1ncn(-c2ccc(N3CCN(c4ccc(OC[C@H]5CO[C@](CSc6ncnn6C)(c6ccc(F)cc6F)O5)cc4)CC3)cc2)c1=O (relative stereo) [Compound 65]
78 nM | CCCn1cnnc1SC[C@]1(c2ccc(Cl)cc2)OC[C@H](COc2ccc(N3CCN(c4ccc(-n5cnn(C(C)CC)c5=O)cc4)CC3)cc2)O1 (relative stereo) [Compound 55]
180 nM | Cn1cnnc1SC[C@]1(c2ccc(F)cc2)OC[C@H](COc2ccc(N3CCN(c4ccc(-n5ccn(C6CCCC6)c5=O)cc4)CC3)cc2)O1 (relative stereo) [Compound 128]
72 nM | CCCn1ncnc1SC[C@]1(c2ccc(Cl)cc2)OC[C@H](COc2ccc(N3CCN(c4ccc(-n5cnn(C(C)CC)c5=O)cc4)CC3)cc2)O1 (relative stereo) [Compound 80]
79 nM | CCC(C)n1ncn(-c2ccc(N3CCN(c4ccc(OC[C@H]5CO[C@](CSc6nncn6CC(C)C)(c6ccc(Cl)cc6)O5)cc4)CC3)cc2)c1=O (relative stereo) [Compound 54]
71 nM | CCC(C)n1ncn(-c2ccc(N3CCN(c4ccc(OC[C@@H]5CO[C@@](CSc6nncn6C)(c6ccc(Cl)cc6)O5)cc4)CC3)cc2)c1=O (relative stereo) [Compound 22, (±)-cis-4-[4-[4-[4-[[2-(4-chlorophenyl)-2-[[(4-methyl-4H-1,2,4-triazol-3-yl)thio]methyl]-1,3-dioxolan-4-yl]methoxy]phenyl]-1-piperazinyl]-phenyl]-2,4-dihydro-2-(1-methylpropyl)-3H-1,2,4-triazol-3-one]
77 nM | Cn1cnnc1SC[C@@]1(c2ccc(F)cc2)OC[C@@H](COc2ccc(N3CCN(c4ccc(-n5cnn(C6CCCC6)c5=O)cc4)CC3)cc2)O1 (relative stereo) [Compound 35]
79 nM | CCC(CC)n1cnn(-c2ccc(N3CCN(c4ccc(OC[C@@H]5CO[C@@](CSc6nncn6C)(c6ccc(Cl)cc6)O5)cc4)CC3)cc2)c1=O (relative stereo) [Compound 7]
74 nM | Cn1cnnc1SC[C@]1(c2ccc(Cl)cc2)OC[C@H](COc2ccc(N3CCN(c4ccc(-n5ccn(C6CCCC6)c5=O)cc4)CC3)cc2)O1 (relative stereo) [Compound 123]
120 nM | CCC(C)n1cnn(-c2ccc(N3CCN(c4ccc(OC[C@H]5CO[C@](CSc6ncnn6C)(c6ccc(F)cc6F)O5)cc4)CC3)cc2)c1=O (relative stereo) [Compound 71]
24 nM | CCC(C)n1ncn(-c2ccc(N3CCN(c4ccc(OC[C@H]5CO[C@](CSc6ncn[nH]6)(c6ccc(Cl)cc6)O5)cc4)CC3)cc2)c1=O (relative stereo) [Compound 76]
180 nM | CCCCCn1ncn(-c2ccc(N3CCN(c4ccc(OC[C@@H]5CO[C@@](CSc6nncn6C)(c6ccc(Cl)cc6)O5)cc4)CC3)cc2)c1=O (relative stereo) [Compound 32]
31 nM | CCC(C)n1ncn(-c2ccc(N3CCN(c4ccc(OC[C@@H]5CO[C@@](CSc6ncnn6C(C)C)(c6ccc(Cl)cc6)O5)cc4)CC3)cc2)c1=O (relative stereo) [Compound 82]
120 nM | Cn1cnnc1SC[C@@]1(c2ccc(Cl)cc2)OC[C@@H](COc2ccc(N3CCN(c4ccc(-n5ncn(C6CCCC6)c5=O)cc4)CC3)cc2)O1 (relative stereo) [Compound 6]
99 nM | CCC(C)n1ncn(-c2ccc(N3CCN(c4ccc(OC[C@H]5CO[C@](CSc6ccccn6)(c6ccc(Cl)cc6)O5)cc4)CC3)cc2)c1=O (relative stereo) [Compound 105]
27 nM | CCC(C)n1ccn(-c2ccc(N3CCN(c4ccc(OC[C@H]5CO[C@](CSc6nncn6C)(c6ccc(Cl)cc6)O5)cc4)CC3)cc2)c1=O (relative stereo) [Compound 93]
